# Reference: PMC8318836 (Bioorganic Chemistry, 2021)
# Assays:
# Huh 7 cells = settings: concentration of 50% cellular toxicity in Huh 7 cells
# VSV G pseudovirus = format: cell-based, vesicular stomatitis virus (VSV); settings: read-out: EC50-VSV
# SARS-CoV-2 pseudovirus [1] = format: cell-based; settings: for EC50: read-out: EC50-SARS-CoV-2
# SARS-CoV-2 pseudovirus [2] = experiment: Single-cycle time-of-addition experiment on SARS-CoV-2 pseudovirus; format: cell-based; settings: 25 µM, Huh 7 cells
SMILES,CC50 (Huh 7 cells) [µM],EC50 (VSV G pseudovirus) [µM],EC50 (SARS-CoV-2 pseudovirus [1]) [µM],"inhibition rate, process d (SARS-CoV-2 pseudovirus [2]; added 1 h post infection) [%]","inhibition rate, process b (SARS-CoV-2 pseudovirus [2]; added during pseudovirus infection at 0 °C) [%]","inhibition rate, process a (SARS-CoV-2 pseudovirus [2]; added during pseudovirus infection at 37 °C) [%]",anti-SARS-CoV-2 activity compared to lead 1 (SARS-CoV-2 pseudovirus [1])
"COc1cc(NCC(=O)N2CCCC3=CC4CC(CN5CCCCC45)C32)cc(OC)c1 (stereo not shown) [14n, 12N-N′-(3,5-Dimethoxyphenylamino)acetyl aloperine]",> 267,> 267,> 267,–,–,–,–
"O=C(CN1CCCC2=CC3CC(C4CCCCN4C3)C21)Nc1cc(Br)ccc1Cl (stereo not shown) [11g, 12N-N′-(5-Bromo-2-chlorophenyl)carbamoylmethyl aloperine]",> 267,77.5,90.3,–,–,–,–
"O=C(CNc1cccc2ccccc12)N1CCCC2=CC3CC(C4CCCCN4C3)C21 (stereo not shown) [14p, 12 N-N′-(1-Naphthylamino)acetyl aloperine]",199,125,73.6,–,–,–,–
"Cc1cc(Cl)ccc1NC(=O)CN1CCCC2=CC3CC(C4CCCCN4C3)C21 (stereo not shown) [11j, 12N-N′-(4-Chloro-2-methylphenyl)carbamoylmethyl aloperine]",> 267,75.1,107,–,–,–,–
"O=C(CN1CCCC2=CC3CC(CN4CCCCC34)C21)Nc1ccc2ccccc2n1 (stereo not shown) [11q, 12N-N′-(2-Quinolyl)carbamoylmethyl aloperine]",> 267,120,67.4,–,–,–,–
"Cc1cc(C)cc(NCC(=O)N2CCCC3=CC4CC(CN5CCCCC45)C32)c1 (stereo not shown) [14m, 12N-N′-(3,5-Dimethylphenylamino)acetyl aloperine]",> 267,> 267,> 267,–,–,–,–
"O=C(CNc1cc(C(F)(F)F)cc(C(F)(F)F)c1)N1CCCC2=CC3CC(CN4CCCCC34)C21 (stereo not shown) [14o, 12N-N′-(3,5-Ditrifluoromethylphenylamino)acetyl aloperine]",113,48.3,37.6,–,–,–,–
"O=C(CNc1ccccc1)N1CCCC2=CC3CC(CN4CCCCC34)C21 (stereo not shown) [14a, 12N-N′-Phenylaminoacetyl aloperine]",> 267,> 267,> 267,–,–,–,–
"O=C(CNc1cccc(C(F)(F)F)c1)N1CCCC2=CC3CC(CN4CCCCC34)C21 (stereo not shown) [14h, 12N-N′-m-Trifluoromethylphenylaminoacetyl aloperine]",> 267,134,69.2,–,–,–,–
"O=C(Nc1cc(C(F)(F)F)cc(C(F)(F)F)c1)N1CCCC2=CC3CC(CN4CCCCC34)C21 (stereo not shown) [15c, 12N-N′-(3,5-Ditrifluoromethylphenyl)carbamoyl aloperine]",53.9,14.9,11.5,–,–,–,–
"COc1cccc(NCC(=O)N2CCCC3=CC4CC(C5CCCCN5C4)C32)c1 (stereo not shown) [14i, 12N-N′-m-Methoxyphenylaminoacetyl aloperine]",> 267,> 267,> 267,–,–,–,–
"Cc1ccc(NC(=O)CN2CCCC3=CC4CC(CN5CCCCC45)C32)cc1C (stereo not shown) [11n, 12N-N′-(3,4-Dimethylphenyl)carbamoylmethyl aloperine]",> 267,108,70.8,–,–,–,–
"O=C(Nc1ccc(F)cc1F)N1CCCC2=CC3CC(CN4CCCCC34)C21 (stereo not shown) [15a, 12N-N′-(2,4-Difluorophenyl)carbamoyl aloperine]",> 267,139,195,–,–,–,–
"O=C(CNc1ccc2ccccc2c1)N1CCCC2=CC3CC(CN4CCCCC34)C21 (stereo not shown) [14q, 12N-N′-(2-Naphthylamino)acetyl aloperine]",224,108,87.2,–,–,–,–
"O=C(CN1CCCC2=CC3CC(C4CCCCN4C3)C21)Nc1ccc2ccccc2c1 (stereo not shown) [11p, 12N-N′-(2-Naphthyl)carbamoylmethyl aloperine]",96.7,43.5,37.1,–,–,–,–
"O=C(CN1CCCC2=CC3CC(CN4CCCCC34)C21)Nc1cc(C(F)(F)F)cc(C(F)(F)F)c1 (stereo not shown) [11o, 12N-N′-(3,5-Ditrifluoromethylphenyl)carbamoylmethyl aloperine]",71,21.9,17,–,–,–,–
"O=C(CNc1ccc(Cl)cc1Cl)N1CCCC2=CC3CC(CN4CCCCC34)C21 (stereo not shown) [14k, 12N-N′-(2,4-Dichlorophenylamino)acetyl aloperine]",65.8,36.2,17.8,–,–,–,–
"O=C(CN1CCCC2=CC3CC(C4CCCCN4C3)C21)Nc1ccc(Cl)cc1Cl (stereo not shown) [11d, 12N-N′-(2,4-Dichlorophenyl)carbamoylmethyl aloperine]",167,70.5,54.8,–,–,–,–
"CCCNC(=O)[C@H]1O[C@@H]1C(=O)N[C@H](C(=O)N1CCC[C@H]1C(=O)O)[C@@H](C)CC [CA-074, reference compound]",231,10.5,2.7,93,77,87,–
"O=C(CN1CCCC2=CC3CC(C4CCCCN4C3)C21)Nc1cc(Cl)cc(C(F)(F)F)c1 (stereo not shown) [11k, 12N-N′-(3-Chloro-5-trifluoromethylphenyl)carbamoylmethyl aloperine]",57.1,17.5,10.4,–,–,–,slightly elevated activity
"O=C(CNc1ccc(F)cc1)N1CCCC2=CC3CC(CN4CCCCC34)C21 (stereo not shown) [14b, 12N-N′-p-Fluorophenylaminoacetyl aloperine]",> 267,> 267,177,–,–,–,–
"O=C(CN1CCCC2=CC3CC(CN4CCCCC34)C21)Nc1ccc(I)cc1 (stereo not shown) [11c, 12N-N′-p-Iodophenylcarbamoylmethyl aloperine]",124,47.8,29.5,–,–,–,–
"O=C(CNc1ccc(Br)cc1)N1CCCC2=CC3CC(CN4CCCCC34)C21 (stereo not shown) [14e, 12N-N′-p-Bromophenylaminoacetyl aloperine]",180,85.4,37.3,–,–,–,–
"O=C(CNc1ccc(Cl)c(Cl)c1)N1CCCC2=CC3CC(C4CCCCN4C3)C21 (stereo not shown) [14l, 12N-N′-(3,4-Dichlorophenylamino)acetyl aloperine]",63,35.9,15.8,–,–,–,–
"O=C(CNc1ccc(Cl)cc1)N1CCCC2=CC3CC(CN4CCCCC34)C21 (stereo not shown) [14d, 12N-N′-p-Chlorophenylaminoacetyl aloperine]",> 267,163,61.3,–,–,–,–
